Source: patent US10023615B2, “Efficient transport into white blood cells” (priority 2008, dated 2018)
Square brackets hold non-standard residues; d marks the D form. Ends that are not written are not given here.

Legend:
[1] = test system: TNBS induced colitis; test: TNBS induced colitis (IBD study); type: in vivo
Experimental: b) Constitution of Test Groups and Dose Levels • The table below lists the experimental groups comprising the study.
c) Test Procedures • Colitis was induced by administration of TNBS dissolved in 50% Ethanol • All animals were then treated with doses of XG-102 in the range of 0.1 to 1000 μg/kg, […], as a single or repeated daily doses (see above).
d) Observations and Examinations • i) Clinical Signs • Throughout the duration of the above experiment, careful clinical examinations were carried out and recorded. Observations included changes external appearance, e.g. of the skin, fur, eyes, mucous membranes, occurrence of secretions and excretions (e.g. diarrhea), and autonomic activity. Changes in gait, posture and response to handling, as well as the presence of bizarre behavior, tremors, convulsions, sleep and coma were also noted. • ii) Body Weights • Determination of individual body weight of animals was made on a daily basis. • iii) Clinical Assessment of Colitis • Body weight, stool consistency and bleeding per rectum were all recorded daily and served as the parameters of disease severity score:
• iv) Gross Pathology of the Colon • On the last day of the experiment, animals were euthanized and the colon was removed for gross pathology evaluation according to the following score: […]

[2] = test system: liver and lymph nodes; test: FITC-XG-102 and FITC-D-TAT localization in liver and lymph nodes; type: in vivo, Sprague Dawley rat; details: 1 mg/kg i.v., 6 h post-injection
Text: FIG. 22A and FIG. 22B: 22A: FITC-XG-102 (SEQ ID NO: 233) localization in the liver. Three cellular fields of FITC-XG-102-labelled cells isolated from liver. From left to right, FITC-labelled XG-102, corresponding DAPI nuclear stain and merge of both images. […] Typicall Kupfer cell shape and nucleus can be differentiated from hepatocytes by their shape. Small and triangle in Kupfer cells in contrast to big exagonal, well organized hepatocytes. Obj 63; bar, 20 μm. 22B: FITC-D-TAT (SEQ ID NO: 4) localization in the liver. Two cellular fields of FITC-D-TAT-labelled cells isolated from liver. From left to right, FITC-labelled XG-102, corresponding DAPI nuclear stain and merge of both images. […] Typicall Kupfer cell shape and nucleus can be differentiated from hepatocytes by their shape. Small and triangle in Kupfer cells in contrast to big exagonal, well organized hepatocytes. Obj 63; bar, 20 μm.
(§1) FIG. 23A and FIG. 23B: 23A: FITC-XG-102 (SEQ ID NO: 233) localization in lymph nodes. Cellular field of FITC-XG-102-labelled cells isolated from lymph nodes. Upper panels from left to right: the composite image is organized with one cellular field stained with FITC-XG-102 (left), Dapi for nuclear stain (middle) and the corresponding merged image (right). In the lower panels, a zoomed cell cluster of each image is illustrated. […] The absence of FITC staining in the lymphoid follicles allows distinguishing from the medullary corde and cortex area. Medullary zone seems to have incorporated the FITC-XG-102, composed in majority by macrophages. Obj 10; bar, 50 μm.
as §1, with “23B:” for “FIG. 23A and FIG. 23B:”, “FITC-D-TAT” for “23A: FITC-XG-102”, “4)” for “233)”, “FITC-D-TAT-labelled” for “FITC-XG-102-labelled”, “FITC-D-TAT” for “FITC-XG-102”, “FITC-D-TAT,” for “FITC-XG-102,”
Female Sprague Dawley rat was injected i.v. in the tail with either 1 mg/kg of FITC-XG102 (SEQ ID NO:233) or 1 mg/kg FITC-D-TAT (SEQ ID NO:4). Rats were sacrified 6 h post-injection using a lethal dose of sodium pentobarbital (150 mg/kg i.p.). For histological analysis and during narcosis, rats were perfused through the heart with 4% paraformaldehyde (PFA) in PBS. Organs (liver and lymph nodes) were cryoprotected in sucrose (30% in PBS), frozen using liquid isopentane and kept for further cryostat sectioning. Sections of 14 μm were incubated for 5 min in PBS before Hoechst staining for 2 min at RT (1 μg/ml). […]

[3] = test system: Lymphocytes B (CD19); test: Flow cytometry of FITC-transporter content in primary human white blood cells: lymphocytes B; type: cell-based; details: 1 uM, 30 min, 37° C.
Text: (§2) Primary human white blood cells (WBC) were obtained from whole blood after red blood cell lysis. […] Cells containing D-TAT-FITC and r3-L-TAT-FITC were finally analysed by flow cytometry to measure their respective transporter content.

[4] = test system: Monocytes (CD14); test: Flow cytometry of FITC-transporter content in primary human white blood cells: monocytes; type: cell-based; details: 1 uM, 30 min, 37° C.
Text: as §2

[5] = test system: Neutrophils (CD15); test: Flow cytometry of FITC-transporter content in primary human white blood cells: neutrophils; type: cell-based; details: 1 uM, 30 min, 37° C.
Text: as §2

[6] = test system: Lymphocytes T (CD3); test: Flow cytometry of FITC-transporter content in primary human white blood cells: lymphocytes T; type: cell-based; details: 1 uM, 30 min, 37° C.
Text: as §2

[7] = test system: U937 lymphoma cells; test: Uptake (internalization) of FITC-labeled TAT derived transporter constructs in U937 cells, fluorescence plate reader; type: cell-based; details: 10 μM, U937, Lymphoma, 24 h
Experimental: Cells were plated into poly-DL-lysine coated dishes at a concentration of 1×10^6 cells/ml. Plates were then incubated for 24 h at 37° C., 5% CO2, and 100% relative humidity prior to the addition of a known concentration of peptide. After peptide addition, the cells were incubated 30 min, 1, 6 or 24 h at 37° C., 5% CO2, and 100% relative humidity. Cells were then washed twice with an acidic buffer (Glycin 0.2 M, NaCl 0.15 M, pH 3.0) in order to remove the cell-surface adsorbed peptide (see Kameyama et al., (2007), Biopolymers, 88, 98-107). […] The cell wash using an acidic buffer was thus employed to remove the cell-surface adsorbed peptides. […] Cells were broken by the addition of the RIPA lysis buffer. The relative amount of internalized peptide was then determined by fluorescence after background substraction and protein content normalization. • The steps are thus: 1. […] Analysis of peptide internalization with a fluorescence plate reader • f) Cell Culture and Peptide Treatment • (1) The 6 well culture plates are coated with 3 ml of Poly-D-Lys (Sigma P9011; 25 μg/ml in PBS), the 24 well plates with 600 μl and the 96 well plates with 125 μl and incubated for 4 h at 37° C., CO2 5% and 100% relative humidity. • (2) After 4 hours the dishes were washed twice with 3.5 ml PBS, 700 μl or 150 μl PBS for the 6, 24 or 96 well plates, respectively. • (3) The cells were plated into the dishes in 2.4 ml medium (RPMI) at plating densities of 1′000′000 cells/ml for suspension cells. After inoculation, the plates were incubated at 37° C., 5% CO2 and 100% relative humidity for 24 hours prior to the addition of the peptide. Adherent cells should be at a density of 90-95% the day of treatment and were plated in DMEM :
• (4) The cells were treated with the desired concentration of FITC labeled peptide (stock solution at a concentration of 10 mM in H2O). • (5) Following peptide addition, the cells were incubated 0 to 24 hours (e.g. 30 min, 1, 6 or 24 hours) at 37° C., CO2 5% and 100% relative humidity. • Acidic Wash and Cellular Extracts: • (6) The extracts were cooled on ice. • Suspension cells (or cells, which don attach well to the dish): • Transfer the cells in ? […] To recover the maximum of cells, wash the dish with 1 ml of PBS. • Harvest the cells 2 min at 2400 rpm max. • Suspend the cells in 1 ml cold PBS. • Transfer the cells into a coated “Eppendorf tube” (coated with 1 ml of poly D-Lys for 4 hours and washed twice with 1 ml PBS). • Wash three times with 1 ml of cold acidic wash buffer and centrifuge 2 min at 2400 rpm max. Beware of the spreading of the cells in the “eppendorf”. • Wash twice with 1 ml cold PBS to neutralize. • Add 50 μl of lysis RIPA Buffer. • Incubate 30 min-1 h on ice with agitation. • Adherent Cells: • Wash three times with 3 ml, 1 ml or 200 μl (for 6, 24 or 96 well plates, respectively) of cold acidic wash buffer. Beware of the cells who detach from the dish. • Wash twice with 1 ml cold PBS (for 6, 24 or 96 well plates, respectively) to neutralize. • Add 50 μl of lysis RIPA buffer. • Incubate 30 min-1 h on ice with agitation. • Scrap the cells with a cold scrapper. The 24 and 96 well plates were directly centrifuged at 4000 rpm at 4° for 15 min to remove the cellular debris. Then the supernatants (100 or 50 ml respectively for the 24 or 96 well plates) were directly transferred in a dark 96 well plated.

[8] = test system: U937 cells; test: Intracellular concentration of transporter constructs subsequent to uptake into U937 cells; type: cell-based; details: U937 cells, 10 μM construct
Experimental: 9. Determination of Intracellular Concentration of Specific Transporter Constructs Subsequent to Uptake (Internalization) of these Peptides into U937 Cells • According to a further experiment, the concentration of specific transporter constructs subsequent to uptake (internalization) of these peptides into U937 cells were determined.

[9] = test system: HL-60 cell line (Leukemia); test: Time dependant internalization of FITC-labeled TAT derived transporter constructs into HL-60 cells; type: cell-based; details: 10 μM; 30 min, 1, 6 or 24 hours
Experimental: FIG. 3: depicts the results of the time dependant internalization (uptake) of FITC-labeled TAT derived transporter constructs into cells of the HL-60 cell line. […] HL-60 cells were incubated 30 min, 1, 6 or 24 hours with […] of the TAT-derivative transporters. The cells were then washed twice with an acidic buffer (0.2 M Glycin, 0.15 M NaCl, pH 3.0) and twice with PBS. Cells were broken by the addition of RIPA lysis buffer. The relative amount of internalized peptide was then determined by reading the fluorescence intensity (Fusion Alpha plate reader; PerkinElmer) of each extract followed by background substraction and protein content normalization. […]

O=C(O)c1cc(/N=N/c2ccc(S(=O)(=O)Nc3ccccn3)cc2)ccc1O [Sulfasalazine, reference compound]
clinical score ([1]; any dose, route or time schedule (single dose or daily dose)): reduction in the clinical score
gross pathology score ([1]; end of the study): effective in reducing the gross pathology completely

FITC-XG-102: FITC-labelled XG-102 (SEQ ID NO: 233) ([dD][dQ][dS][dR][dP][dV][dQ][dP][dF][dL][dN][dL][dT][dT][dP][dR][dK][dP][dR][dP][dP][dR][dR][dR][dQ][dR][dR][dK][dK][dR]G; not fully specified (N-terminus, C-terminus); also: FITC label, site not given here)
localization in lymph nodes [2]: decorates subcapsular sinus macrophages and constitutive migrating alveolar macrophages
localization in the liver [2]: efficiently decorates Kupfer cells in contrast to hepatocytes which only show a background staining level

FITC-βA-rKKRrQRRr [r3-L-TAT-FITC]
percentage of cells gated, lower left quadrant [3]: 61.92%
percentage of cells gated, lower right quadrant [3]: 8.48%
percentage of cells gated, upper left quadrant [3]: 27.83%
percentage of cells gated, upper right quadrant [3]: 1.76%
percentage of cells gated, lower left quadrant [4]: 40.77%
percentage of cells gated, lower right quadrant [4]: 36.24%
percentage of cells gated, upper left quadrant [4]: 6.34%
percentage of cells gated, upper right quadrant [4]: 16.65%
percentage of cells gated, lower left quadrant [5]: 49.75%
percentage of cells gated, lower right quadrant [5]: 24.76%
percentage of cells gated, upper left quadrant [5]: 11.74%
percentage of cells gated, upper right quadrant [5]: 13.75%
percentage of cells gated, lower left quadrant [6]: 50.36%
percentage of cells gated, lower right quadrant [6]: 20.04%
percentage of cells gated, upper left quadrant [6]: 20.64%
percentage of cells gated, upper right quadrant [6]: 8.96%

RKKRRQRRR (Description of sequence trafficking sequence L-TAT (s1a) (see Table 1)) [reference compound]
uptake (internalization) [7]: significantly lower uptake
intracellular concentration of transporter construct subsequent to uptake ([8]; 2 h): 1.20
intracellular concentration of transporter construct subsequent to uptake ([8]; 4 h): 1.38
intracellular concentration of transporter construct subsequent to uptake ([8]; 6 h): 1.07
intracellular concentration of transporter construct subsequent to uptake ([8]; 24 h): 0.5
time dependant internalization (uptake) [9]: doesn't accumulate over a period of 24 hours
